# Values of other authors as cited in patent US20140187520A1, “STABLE INJECTABLE PHARMACEUTICAL COMPOSITION OF VITAMIN D RECEPTOR AGONIST AND PROCESS FOR PREPARATION THEREOF” (PHARMATHEN S.A., priority 2012, published 2014).
smiles,measurement,setting,value
"C[C@H](/C=C/[C@H](C)C(C)(C)O)[C@H]1CC[C@H]2/C(=C/C=C3C[C@@H](O)C[C@H](O)C3)CCC[C@]12C [paricalcitol, 19-nor-1α,3β,25-trihydroxy-9,10-secoergosta-5(Z),7(E), 22(E)-triene]",solubility in alcohol,alcohol,soluble
same,solubility in water,water,insoluble
